The values that follow come from patent US7387788B1 (priority 2003, dated 2008).

SMILES strings stand for the structures.

For data set [1] the following is noted: oral administration; cited from earlier work.
Data set [2] in a line: In vitro skin permeation, Franz cells, frozen human abdominal skin. It counts as in vitro ADME. Particulars: Example 7. The method, then:
Percutaneous absorption was measured using the in vitro cadaver skin finite dose technique. Cryo-preserved, human cadaver trunk skin was obtained from a skin bank and stored in water-impermeable plastic bags at <−70° C. until used.
Briefly, skin samples were prepared as follows.
The dermal cell was filled with receptor solution.
Experiments were performed under non-occlusive conditions.
Analysis of the samples was performed by HPLC.
Twenty-five micro liters of sample were injected.
Formulations 7.1 and 7.3 were made essentially as described above in the Materials and Methods. Formulation 7.1 and 7.2 are identical, but formulation 7.1 was tested on pig ear skin, and formulation 7.2 was tested on frozen human abdominal skin. Formulation 7.3 (Reference marketed product) was also tested on frozen human abdominal skin. Permeation studies used Franz cells as described in the Materials and Methods.
Individual gel amounts applied to tested skin samples were approximately 10 mg. Studies were performed according to OECD (Organization for Economic Cooperation and Development) guidelines (Organization for Economic Co-operation and Development (OECD), Environment Directorate. “Guidance document for the conduct of skin absorption studies,” OECD series on testing and assessment, No. 28. Paris, version 5 Mar. 2004).

The conditions of data set [3]: in an alcohol/water solvent; cited from earlier work.
For data set [4] the following is noted: cited from earlier work.
Data set [5] can be described thus: In vitro skin permeation, Franz cells, finite dose, non-occlusive, pig ear skin. The settings on record: topical or ocular, 10 mg, pH 7.4.
Method: A finite dose (for example: 4-7 mg/cm^2) of formulation is applied to the outer surface of the skin and drug absorption is measured by monitoring its rate of appearance in the receptor solution bathing the inner surface of the skin. Data defining total absorption, rate of absorption, as well as skin content can be accurately determined in this model.
Pig skin can be prepared essentially as described below for human skin.
Prior to the experiment, skin was removed from the bag, placed in water (approximately 37° C.) for five minutes, and then cut into sections large enough to fit on 1 cm^2 Franz Cells (Crown Glass Co., Somerville, N.J.). Briefly, skin samples were prepared as follows. A small volume of phosphate buffered saline (PBS) was used to cover the bottom of the Petri dishes. Skin disks generally depleted of fat layers were placed in the Petri dishes for hydration. A Stadie-Riggs manual tissue microtome was used for slicing excised skin samples. Approximately 2 mL of PBS was placed into the middle cavity of the microtome as slicing lubricant. Skin disks were placed, dermal side up, into the middle cavity of the microtome. Filter paper was soaked with PBS, inserted in the cavity just above the skin disk. The filter paper prevented the dermis from sliding onto the top of the cutting block and helped to insure more precise cutting. […]

Regarding `NCCCC(O)(P(=O)(O)O)P(=O)(O)O` [sodium alendronate], the “fraction of the drug absorbed when administered orally” value in data set [1] is reported as “about 0.6%”.
In the case of `CN1CCC[C@H]1c1cccnc1` [nicotine, 1-methyl-2-(3-pyridyl)pyrrolidone], in data set [2] (p=0.009), the “change of transdermal in vitro bioavailability, frozen human skin versus fresh pig skin” value is recorded as −52%. For the same compound, the bioavailability at 16 h, 1.5 % FBE worked out at 18% in data set [2] (topical or ocular, 10 mg, pH 7.4, frozen human skin, gel of Table 13 (formulation 7.2)) and 38% in data set [5]. Moreover, the “apparent pKa of nicotine” value in data set [3] is given as 7.7. Further, the Oral bioavailability entry in data set [4] is recorded as “about 30%”.
